Measurements: US5079257A, “Indoloquinone compounds” (priority 1986, dated 1992)
Converted amounts (≈) assume the structure as drawn. Read-outs that look alike come from different tables or passages of the source.

Key:
Ovarian (MRI-H-207) line = assay type: in vivo, human
Text: The xenograft experiments have been carried by Dr. H. H. Fiebig of the University of Freiburg [Lung-NSCLC (LXGF) line, Renal line, Breast line; See: H. H. Fiebig et al., Behring Inst. Mitt., 74 343] and by Dr. E. Boven of the Free University Hospital Amsterdam [Ovarian (MRI-H-207) line; See: E. Boven et al., Cancer Res., 45, 86 (1985) and E. Boven et al., Eur. J. Clin. Oncol., 21, 1253 (1985)].
Mice: C57B1 athymic (nu/nu) female mice, 8 to 10 weeks of age were used for s.c. bilateral implantation of tumour fragments 2 mm diameter.
Treatment: E.O. 9 was dissolved in saline at a concentration of 0.5 mg/ml prior to administration. Drug doses and schedules were derived from studies in experimental murine tumour systems and from orientation studies in non-tumour-bearing nude mice. Treatment was started i.v. when tumours measured 50-150 mm^3. After randomization a group of 6-7 tumour-bearing mice was treated and a group of 5-6 tumour-bearing mice served as control.
Evaluation of efficacy: Tumours were measured twice weekly in three dimensions. Efficacy was expressed as the mean of relative tumour volume in treated animals vs. that in control animals×100 (% T/C). The optimal value was calculated within 35 days after the last injection. Toxic death (dead mice within two weeks after the last injection) were excluded from the evaluation.
MRI-H-207: An undifferentiated adenocarcinoma kindly provided by Dr. A. E. Bogden, Worcester, Mass, with a doubling time of 3-5 days.

[1] = system: T 24 cells; bladder carcinoma; experiment: In vitro panel of human tumour lines (TNO): T 24; assay type: cell-based; conditions: about 72 hours; further: key: -: no inhibition of cell growth; +: total cell-kill
Method: (§1) Compounds E.O. 1, E.O. 2, E.O. 4, E.O. 4A, E.O. 8, E.O. 9, […], E.O. 33, and E.O. 35 were tested for their activity against five human tumour cell lines at the Radiobiological Institute TNO Rijswijk.
(§2) The new in vitro prescreen uses human tumour clones; it was set up by Dr. P. Lelieveld at TNO Rijswijk and comprises testing compounds in a bioliquid assay for their cytostatic activity against the following five human tumour lines:
(§3) After a continuous exposure to the drugs to be tested and to Adriamycin in `24 well tissue culture clusters, type 3524 (Costar)`, the remaining cells are fixed and stained. Using increasing drug concentrations the inhibiting concentration can be estimated qualitatively.
(§4) Cells: the human tumour cells are maintained in Dulbecco's medium supplemented with 10 percent foetal calf serum.
(§5) A, T and Z cell suspensions: 5·10^4 cells/ml
(§6) The cells were grafted into 16 mm wells for 48 hours (0.5 ml cell suspension per well was used).
(§7) Drugs: the compound to be tested was dissolved in appropriate concentrations in a mixture of Hepes-buffered Hanks' balanced salt solution and ethanol. The drug solutions (0.05 ml) were added to the different wells. The final ethanol concentration in each well was less than one percent.
(§8) The cells were continuously incubated with the compound under test at 37° in an atmosphere of 10 percent CO2 in humidified air for about 72 hours.
(§9) Determination of the inhibiting dose: the cells were fixed and stained with a solution of crystal violet in methanol/formaldehyde.

MCF7 breast cancer cells = experiment: In vitro panel of human tumour lines (TNO): MCF-7; assay type: cell-based; conditions: about 72 hours; further: key: -: no inhibition of cell growth; +: total cell-kill
Method: as §1, §2, §3, §4
(§10) M and W cell suspensions: 10^5 cells/ml.
as §6, §7, §8, §9

WiDr cells; colon tumour = experiment: In vitro panel of human tumour lines (TNO): WiDr; assay type: cell-based; conditions: about 72 hours; further: key: -: no inhibition of cell growth; +: total cell-kill
Method: as §1, §2, §3, §4, §10, §6, §7, §8, §9

IgR37 cells melanoma = experiment: In vitro panel of human tumour lines (TNO): IgR-37; assay type: cell-based; conditions: about 72 hours; further: key: -: no inhibition of cell growth; +: total cell-kill
Method: as §1, §2, §3, §4, §5, §6, §7, §8, §9

P 388 tumour cells = experiment: In vivo P388 experiments (Brussels); design: species or system mice; conditions: for MAX T/C: days 1 to 5
Method: These experiments were carried out at the Institute Jules Bordet, Brussels, on CDF, female mice. The mice were inoculated intraperitoneally (IP) with 1×10^6 P 388 tumour cells. After 24 hours, the compounds were administrated as suspensions in "Tween-80" or using saline as vehicle. Six mice were used at each dose of the compound, given on days 1 to 5 and eighteen control mice were injected with saline.

[2] = system: A 204 cells; rhabdomyosarcoma; experiment: In vitro panel of human tumour lines (TNO): A 204; assay type: cell-based; conditions: about 72 hours; further: key: -: no inhibition of cell growth; +: total cell-kill
Method: as §1, §2, §3, §4, §5, §6, §7, §8, §9

L1210 cells = experiment: L1210 activity (bioliquid assay), cytotoxicity; assay type: cell-based; conditions: Mus musculus, L1210, 48 h
Procedure, shortened: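 Suspension culture in RPMI with 15% FCS and 2-mercaptoethanol (60 μmol). Continuous compound exposure for 48 hours at 37° C under 5% CO2 in humidified air. Cell numbers then counted on an electronic microcell counter.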

[3] = system: R-1 cells (Rhabdomyosarcoma Cells); experiment: R-1 activity (bioliquid assay), cytotoxicity; assay type: cell-based; conditions: Rhabdomyosarcoma cell
Procedure, shortened: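 Rhabdomyosarcoma R-1 cells (~10^6 per dish) in Dulbecco's medium with 10% FCS were exposed to drug solution, which was then replaced by fresh medium. Cells were trypsinized after 48 hours and counted electronically.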

[4] = Half-wave reduction potentials / polarography (University of Utrecht); assay type: physicochemical; conditions: pH = 8 vs Ag/AgCl
Text: *The halve wave reduction potentials (E1/2) have been determined at the
Pharmaceutical Laboratory of University of Utrecht. Only the first
(quinone) reduction potential has been given.
Additional evidence for the occurrence of a bioreductive activation mechanism during the cytotoxic action of indoloquinones (II) was obtained via electrochemical studies, which have been carried out at the Pharmaceutical Laboratory of the University of Utrecht. […]

[5] = read-out: ID-50 L1210, Table VIII
[6] = read-out: ID-50 R-1, Table I, bioliquid assay
[7] = read-out: ID-50 R-1, Table VIII
[8] = 60 mg/kg, days of treatment 0,6,13,20
[9] = 150 mg/kg, days of treatment 0,9,16

| SMILES | in vitro activity score, T 24 ([1]; 0.01 μg/ml) | in vitro activity score, T 24 ([1]; 0.1 μg/ml) | in vitro activity score, T 24 ([1]; 1.0 μg/ml) | in vitro activity score, MCF-7 (MCF7 breast cancer cells; 0.01 μg/ml) | in vitro activity score, MCF-7 (MCF7 breast cancer cells; 0.1 μg/ml) | in vitro activity score, MCF-7 (MCF7 breast cancer cells; 1.0 μg/ml) | in vitro activity score, WiDr (WiDr cells; colon tumour; 0.01 μg/ml) | in vitro activity score, WiDr (WiDr cells; colon tumour; 0.1 μg/ml) | in vitro activity score, WiDr (WiDr cells; colon tumour; 1.0 μg/ml) | in vitro activity score, IgR-37 (IgR37 cells melanoma; 0.01 μg/ml) | in vitro activity score, IgR-37 (IgR37 cells melanoma; 10 μg/ml) | in vitro activity score, A 204 ([2]; 0.01 μg/ml) | in vitro activity score, A 204 ([2]; 0.1 μg/ml) | in vitro activity score, A 204 ([2]; 1.0 μg/ml) | IC50 (L1210 cells; [5]) [µg/mL] | IC50 [3, 7] [µg/mL] | in vitro activity score, MCF-7 (MCF7 breast cancer cells; 10 μg/ml) | also measured |
| --- | --- | --- | --- | --- | --- | --- | --- | --- | --- | --- | --- | --- | --- | --- | --- | --- | --- | --- |
| COc1cccc2c1C(=O)c1c(O)c3c(c(O)c1C2=O)C[C@@](O)(C(=O)CO)C[C@@H]3O[C@H]1C[C@H](N)[C@H](O)[C@H](C)O1 [DXR] |  |  |  |  |  |  |  |  |  |  |  |  |  |  |  |  |  | toxic deaths (Ovarian (MRI-H-207) line; 10 mg/kg, days of treatment 0.7): 1/6 |
| CC(=O)OC/C=C/c1c(COC(C)=O)c2c(n1C)C(=O)C(C)=C(N1CC1)C2=O [E.O. 35, 3-Acetoxymethyl-5-aziridino-1,6-dimethyl-2-[1H-indole-4,7-dione]prop-β-en-αyl acetate] | - | - | - | - | - | - | - | - | - | - | + | - | - | - | 0.55 | 0.32 |  | in vitro activity score, IgR-37 (IgR37 cells melanoma; 0.1 μg/ml): -; MAX T/C (P 388 tumour cells; 400 mg/kg): 131%; T/C at the optimal dose (P 388 tumour cells; optimal dose): ~130%; IC50 [3, 6]: 0.3 µg/mL |
| N.N.O=C([O-])C1(C(=O)[O-])CCC1.[Pt+2] [Carboplatin] |  |  |  |  |  |  |  |  |  |  |  |  |  |  |  |  |  | toxic deaths (Ovarian (MRI-H-207) line; 60 mg/kg, days of treatment 0.6): 0/6 |
| O=c1[nH]cc(F)c(=O)[nH]1 [5FU] |  |  |  |  |  |  |  |  |  |  |  |  |  |  |  |  |  | T/C % (Ovarian (MRI-H-207) line; [8]): 63%; toxic deaths (Ovarian (MRI-H-207) line; [8]): 0/7 |
| CC(=O)OCc1c2c(n(C)c1/C=C/CO)C(=O)C=C(N1CC1)C2=O [E.O. 4A, 3-Acetoxymethyl-5-aziridino-1-methyl-2-[1H-indole-4,7-dione]prop-β-en-α-ol] | - | - | + | - | - |  | - | - | + | - | + | - | - | + | 0.15 (≈ 0.454 µM) | 0.022 (≈ 0.0666 µM) | + | in vitro activity score, T 24 ([1]; 10 μg/ml): +; in vitro activity score, WiDr (WiDr cells; colon tumour; 10 μg/ml): +; in vitro activity score, IgR-37 (IgR37 cells melanoma; 1.0 μg/ml): +; MAX T/C (P 388 tumour cells; 100 mg/kg): 120%; in vitro activity score, A 204 ([2]; 10 μg/ml): +; IC50 [3, 6]: 0.02 µg/mL (≈ 0.0605 µM) |
| CN(Cc1cnc2nc(N)nc(N)c2n1)c1ccc(C(=O)N[C@@H](CCC(=O)O)C(=O)O)cc1 [Methotrex., reference compound] |  |  |  | - | - | - | - |  |  | - |  |  | + | + |  |  | - | T/C % (Ovarian (MRI-H-207) line; [9]): 47%; toxic deaths (Ovarian (MRI-H-207) line; [9]): 2/7; in vitro activity score, A 204 ([2]; 10 μg/ml): + |
| CN(C)c1nc(N(C)C)nc(N(C)C)n1 [HMM] |  |  |  |  |  |  |  |  |  |  |  |  |  |  |  |  |  | toxic deaths (Ovarian (MRI-H-207) line; 150 mg/kg, days of treatment 0,2,4,6): 1/6 |
| O=P1(N(CCCl)CCCl)NCCCO1 (stereo not drawn) [CTX] |  |  |  |  |  |  |  |  |  |  |  |  |  |  |  |  |  | toxic deaths (Ovarian (MRI-H-207) line): 2/7 |
| CC1CN1C1=CC(=O)c2c(c(CO)c(/C=C/CO)n2C)C1=O (stereo not drawn) [E.O. 8, 3-Hydroxymethyl-1-methyl-5-propyleneamino-2-[1H-indole-4,7-dione]prop-β-en-α-ol] | - | - | - | - | - | - | - | - | - | - | + | - | - | - | 0.48 (≈ 1.59 µM) | 7.6 (≈ 25.1 µM) | - | in vitro activity score, IgR-37 (IgR37 cells melanoma; 0.1 μg/ml): -; in vitro activity score, IgR-37 (IgR37 cells melanoma; 1.0 μg/ml): -; half-wave potential E1.2, wave I [4]: -380 mV; half-wave potential E1.2, wave II [4]: -780 mV; IC50 (L1210 cells; read-out: ID-50 L1210, Table I, bioliquid assay, 48 hours): 0.5 µg/mL (≈ 1.65 µM) |
